Laboratory results published in article PMC9841523 (Journal of Medicinal Chemistry, 2022).
Read-outs that look alike come from different tables or passages of the source.

Tests used:
Type in all cases: cell-based
[1] = tested on: 4EBP1 T37/T46 phosphorylation (mTORC1); assay: AlphaLISA/MSD analysis of 4EBP1 phosphorylation in MDA-MB-468 cells; settings: for IC50: Homo sapiens, read-out: p4EBP1 IC50; for reduction in mTORC1 p4EBP1 activity on going from 8 PEG units to 6 PEG units: versus the 8 PEG analog
Protocol: (§1) Cell culture and reagents. Cells were obtained from ATCC, grown in appropriate medium supplemented with 10% fetal bovine serum and 1% penicillin/streptomycin and maintained at 37 °C in a humidified incubator at 5% CO 2.
(§2) AlphaLISA and MesoScale Discovery (MSD) analysis of 4EBP1, S6K and AKT phosphorylation. mTOR substrate phosphorylation in MDA-MB-468 cells was assayed using AlphaLISA SureFire Ultra kits for p4EBP1 Thr37/46, p-P70S6K Thr389 and p-AKT1/2/3 Ser473 (PerkinElmer), and MSD Multi-Array Assay Systems for Phospho-4EBP1 (Thr37/46) and Phospho-AKT (Ser473) (MSD). Cells were seeded at 25,000 cells per well and exposed the next day to serial three-fold dilutions of compounds in complete medium with 0.1% dimethylsulfoxide (DMSO). After indicated incubation times, cells were lysed and AlphaLISA or MSD performed according to the manufacturers’ protocols. Samples were read using an EnVision Multilabel Plate Reader (PerkinElmer) using standard AlphaLISA settings or using an MSD plate reader. Data were plotted as a function of logM [compound] with a sigmoidal concentration response (variable slope) model fitted to the data to estimate the inhibitor half-maximum effective concentration (EC 50) in Prism 7 (GraphPad). Alternatively, results were analyzed as percentage of control in which 0% was set as signal from 1 μM Torin1 and 100% was set as the mean of DMSO wells on each plate, and inhibitor EC 50 was estimated as described

p-P70S6K Thr389 = assay: AlphaLISA/MSD analysis of S6K phosphorylation in MDA-MB-468 cells; settings: Homo sapiens; MDA-MB-468 cells; read-out: pS6K IC50
Protocol: as §1, §2

[2] = tested on: AKT S473 phosphorylation (mTORC2); assay: AlphaLISA/MSD analysis of AKT phosphorylation in MDA-MB-468 cells; settings: for IC50: Homo sapiens
Protocol: as §1, §2

[3] = MDA-MB-468 cells, read-out: pAKT IC50
[4] = up to a maximal test concentration of 1 μM

Row | Compound | IC50 ([1]; MDA-MB-468 cells) [nM] | IC50 (p-P70S6K Thr389) [nM] | IC50 [2, 3] [nM] | IC50 ([2]; MDA-MB-468, read-out: pAKT IC50) [nM] | selectivity for mTORC1 over mTORC2 ([1]; pAKT versus p4EBP1 inhibition, MDA-MB-468 cells) | p4EBP1 inhibition [1, 4] | pAKT inhibition [2, 4] | reduction in mTORC1 p4EBP1 activity on going from 8 PEG units to 6 PEG units [1] [fold]
1 | CO[C@H]1C[C@@H]2CC[C@@H](C)[C@@](O)(O2)C(=O)C(=O)N2CCCC[C@H]2C(=O)O[C@H]([C@H](C)C[C@@H]2CC[C@@H](OCCOCc3cn(CCOCCOCCOCCOCCOCCOCCOCCOCCC(=O)NCCCCn4nc(-c5ccc6oc(N)nc6c5)c5c(N)ncnc54)nn3)[C@H](OC)C2)CC(=O)[C@H](C)/C=C(\C)[C@@H](O)[C@@H](OC)C(=O)[C@H](C)C[C@H](C)/C=C/C=C/C=C/1C [compound 3, RapaLink-1, reference compound] | 1.7 | 0.93 | 6.7 | – | – | – | – | –
2 | Nc1ncnc2c1c(-c1cnc3[nH]ccc3c1)nn2C1CCCC1 [compound 8, PP121, reference compound] | – | – | – | 100 | – | – | – | –
3 | CO[C@H]1C[C@@H]2CC[C@@H](C)[C@@](O)(O2)C(=O)C(=O)N2CCCC[C@H]2C(=O)O[C@H]([C@H](C)C[C@@H]2CC[C@@H](OCCCCc3cn(CCOCCOCCOCCOCCOCCOCCOCCOCCC(=O)NCCCCn4nc(-c5ccc6oc(N)nc6c5)c5c(N)ncnc54)nn3)[C@H](OC)C2)CC(=O)[C@H](C)/C=C(\C)[C@@H](O)[C@@H](OC)C(=O)[C@H](C)C[C@H](C)/C=C/C=C/C=C/1C [compound 16] | 1.1 | 0.42 | 3.1 | – | – | – | – | –
4 | CO[C@H]1C[C@@H]2CC[C@@H](C)[C@@](O)(O2)C(=O)C(=O)N2CCCC[C@H]2C(=O)O[C@H]([C@H](C)C[C@@H]2CC[C@@H](OCCOCc3cn(CCOCCOCCOCCOCCOCCOCCOCCOCCC(=O)NCCCCn4nc(-c5cc6cc(O)ccc6[nH]5)c5c(N)ncnc54)nn3)[C@H](OC)C2)CC(=O)[C@H](C)/C=C(\C)[C@@H](O)[C@@H](OC)C(=O)[C@H](C)C[C@H](C)/C=C/C=C/C=C/1C [compound 17, reference compound] | 2.5 | 0.47 | 24 | – | – | – | – | –
5 | CO[C@H]1C[C@@H]2CC[C@@H](C)[C@@](O)(O2)C(=O)C(=O)N2CCCC[C@H]2C(=O)O[C@H]([C@H](C)C[C@@H]2CC[C@@H](OCCCCc3cn(CCOCCOCCOCCOCCOCCOCCOCCOCCC(=O)NCCCCn4nc(-c5cc6cc(O)ccc6[nH]5)c5c(N)ncnc54)nn3)[C@H](OC)C2)CC(=O)[C@H](C)/C=C(\C)[C@@H](O)[C@@H](OC)C(=O)[C@H](C)C[C@H](C)/C=C/C=C/C=C/1C [compound 18] | 1.4 | 0.28 | 18 | – | approximately 13 fold | – | – | –
6 | COc1ccc(-c2ccc3ncc4c(c3c2)n(C)c(=O)n4-c2ccc(N3CCN(C(=O)CCOCCOCCOCCOCCOCCOCCOCCOCCn4cc(CCCCO[C@@H]5CC[C@@H](C[C@@H](C)[C@@H]6CC(=O)[C@H](C)/C=C(\C)[C@@H](O)[C@@H](OC)C(=O)[C@H](C)C[C@H](C)/C=C/C=C/C=C(\C)[C@@H](OC)C[C@@H]7CC[C@@H](C)[C@@](O)(O7)C(=O)C(=O)N7CCCC[C@H]7C(=O)O6)C[C@H]5OC)nn4)CC3)c(C(F)(F)F)c2)cn1 [compound 19] | 0.06 | 0.02 | 0.52 | – | – | – | – | –
7 | CO[C@H]1C[C@@H]2CC[C@@H](C)[C@@](O)(O2)C(=O)C(=O)N2CCCC[C@H]2C(=O)O[C@H]([C@H](C)C[C@@H]2CC[C@@H](OCCCCc3cn(CCOCCOCCOCCOCCOCCOCCOCCOCCC(=O)NCCCCn4nc(-c5cnc6[nH]ccc6c5)c5c(N)ncnc54)nn3)[C@H](OC)C2)CC(=O)[C@H](C)/C=C(\C)[C@@H](O)[C@@H](OC)C(=O)[C@H](C)C[C@H](C)/C=C/C=C/C=C/1C [compound 20] | 1 | 0.22 | 17 | – | – | – | – | –
8 | CO[C@H]1C[C@@H]2CC[C@@H](C)[C@@](O)(O2)C(=O)C(=O)N2CCCC[C@H]2C(=O)O[C@H]([C@H](C)C[C@@H]2CC[C@@H](OCCCCc3cn(CCOCCOCCOCCOCCOCCOCCOCCOCCC(=O)N4CCc5cc(Cn6nc(-c7ccc8oc(N)nc8c7)c7c(N)ncnc76)ccc5C4)nn3)[C@H](OC)C2)CC(=O)[C@H](C)/C=C(\C)[C@@H](O)[C@@H](OC)C(=O)[C@H](C)C[C@H](C)/C=C/C=C/C=C/1C [compound 21] | 0.44 | 0.13 | 8.8 | – | – | – | – | –
9 | CO[C@H]1C[C@@H]2CC[C@@H](C)[C@@](O)(O2)C(=O)C(=O)N2CCCC[C@H]2C(=O)O[C@H]([C@H](C)C[C@@H]2CC[C@@H](OCCCCc3cn(CCOCCOCCOCCOCCOCCOCCOCCOCCC(=O)N4CCC(Cn5nc(-c6ccc7oc(N)nc7c6)c6c(N)ncnc65)CC4)nn3)[C@H](OC)C2)CC(=O)[C@H](C)/C=C(\C)[C@@H](O)[C@@H](OC)C(=O)[C@H](C)C[C@H](C)/C=C/C=C/C=C/1C [compound 22] | 0.67 | 0.16 | 1.8 | – | – | – | – | –
10 | CO[C@H]1C[C@@H]2CC[C@@H](C)[C@@](O)(O2)C(=O)C(=O)N2CCCC[C@H]2C(=O)O[C@H]([C@H](C)C[C@@H]2CC[C@@H](OCCCCc3cn(CCOCCOCCOCCOCCOCCOCCOCCOCCC(=O)NCCCCn4nc(-c5ccc6oc(N)nc6c5)c5c(N(C)C)ncnc54)nn3)[C@H](OC)C2)CC(=O)[C@H](C)/C=C(\C)[C@@H](O)[C@@H](OC)C(=O)[C@H](C)C[C@H](C)/C=C/C=C/C=C/1C [compound 23] | > 1000 | 0.29 | > 1000 | – | – | inactive | inactive | –
11 | CO[C@H]1C[C@@H]2CC[C@@H](C)[C@@](O)(O2)C(=O)C(=O)N2CCCC[C@H]2C(=O)O[C@H]([C@H](C)C[C@@H]2CC[C@@H](OCCCCc3cn(CCOCCOCCOCCOCCOCCOCCC(=O)NCCCCn4nc(-c5cnc6[nH]ccc6c5)c5c(N)ncnc54)nn3)[C@H](OC)C2)CC(=O)[C@H](C)/C=C(\C)[C@@H](O)[C@@H](OC)C(=O)[C@H](C)C[C@H](C)/C=C/C=C/C=C/1C [compound 24] | 31 | 0.24 | 110 | – | – | – | – | > 30
12 | CO[C@H]1C[C@@H]2CC[C@@H](C)[C@@](O)(O2)C(=O)C(=O)N2CCCC[C@H]2C(=O)O[C@H]([C@H](C)C[C@@H]2CC[C@@H](OCCCCc3cn(CCOCCOCCOCCOCCOCCOCCC(=O)NCCCCn4nc(-c5cc6cc(O)ccc6[nH]5)c5c(N)ncnc54)nn3)[C@H](OC)C2)CC(=O)[C@H](C)/C=C(\C)[C@@H](O)[C@@H](OC)C(=O)[C@H](C)C[C@H](C)/C=C/C=C/C=C/1C [compound 25] | 370 | 0.59 | 120 | – | – | – | – | > 250
13 | COc1ccc(-c2ccc3ncc4c(c3c2)n(-c2ccc(N3CCN(C(=O)CCOCCOCCOCCOCCOCCOCCn5cc(CCCCO[C@@H]6CC[C@@H](C[C@@H](C)[C@@H]7CC(=O)[C@H](C)/C=C(\C)[C@@H](O)[C@@H](OC)C(=O)[C@H](C)C[C@H](C)/C=C/C=C/C=C(\C)[C@@H](OC)C[C@@H]8CC[C@@H](C)[C@@](O)(O8)C(=O)C(=O)N8CCCC[C@H]8C(=O)O7)C[C@H]6OC)nn5)CC3)c(C(F)(F)F)c2)c(=O)n4C)cn1 [compound 26] | 0.08 | 0.03 | 0.74 | – | – | – | – | –
14 | CO[C@H]1C[C@@H]2CC[C@@H](C)[C@@](O)(O2)C(=O)C(=O)N2CCCC[C@H]2C(=O)O[C@H]([C@H](C)C[C@@H]2CC[C@@H](OCCCCc3cn(CCOCCOCCOCCOCCOCCOCCC(=O)NCCCCn4nc(-c5ccc6oc(N)nc6c5)c5c(N)ncnc54)nn3)[C@H](OC)C2)CC(=O)[C@H](C)/C=C(\C)[C@@H](O)[C@@H](OC)C(=O)[C@H](C)C[C@H](C)/C=C/C=C/C=C/1C [compound 27] | 1.1 | 0.26 | 5.2 | – | – | – | – | –
